Reference: PubChem BioAssay AID2060495 (Molecular Pharmacology Branch, DTP, NCI, 2025)

Test system: 521955-158-R2-J5-PDC complex spheroid viability
Experiment: Anticancer human tumor 521955-158-R2-J5-PDC patient-derived pancreatic carcinoma cell line growth inhibition [GQUAD]
Details: for IC50: curve of first compound; for viability, T/C: stronger effect = lower value; active = viability on the fitted dose curve at most 10% of control; inactive = the rest
How it was run: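 Viability of tumor cells grown as complex spheroids with endothelial and stromal cells, exposed to drug combinations. Top concentration at or near clinical Cmax (else 10 microM), diluted in half-log increments.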

[1] = second compound 0.0316 µM, first compound 0.0316 µM
[2] = second compound 0.0316 µM, first compound 0.1 µM
[3] = second compound 0.0316 µM, first compound 0.316 µM
[4] = second compound 0.0316 µM, first compound 1 µM
[5] = second compound 0.0316 µM, first compound 3.16 µM
[6] = second compound 0.0316 µM, first compound 10 µM
[7] = second compound 0.1 µM, first compound 0.0316 µM
[8] = second compound 0.1 µM, first compound 0.1 µM
[9] = second compound 0.1 µM, first compound 0.316 µM
[10] = second compound 0.1 µM, first compound 1 µM
[11] = second compound 0.1 µM, first compound 3.16 µM
[12] = second compound 0.1 µM, first compound 10 µM
[13] = second compound 0.316 µM, first compound 0.0316 µM
[14] = second compound 0.316 µM, first compound 0.1 µM
[15] = second compound 0.316 µM, first compound 0.316 µM
[16] = second compound 0.316 µM, first compound 1 µM
[17] = second compound 0.316 µM, first compound 3.16 µM
[18] = second compound 0.316 µM, first compound 10 µM
[19] = second compound 1 µM, first compound 0.0316 µM
[20] = second compound 1 µM, first compound 0.1 µM
[21] = second compound 1 µM, first compound 0.316 µM
[22] = second compound 1 µM, first compound 1 µM
[23] = second compound 1 µM, first compound 3.16 µM
[24] = second compound 1 µM, first compound 10 µM
[25] = second compound 3.16 µM, first compound 0.0316 µM
[26] = second compound 3.16 µM, first compound 0.1 µM
[27] = second compound 3.16 µM, first compound 0.316 µM
[28] = second compound 3.16 µM, first compound 1 µM
[29] = second compound 3.16 µM, first compound 3.16 µM
[30] = second compound 3.16 µM, first compound 10 µM
[31] = second compound 10 µM, first compound 0.0316 µM
[32] = second compound 10 µM, first compound 0.1 µM
[33] = second compound 10 µM, first compound 0.316 µM
[34] = second compound 10 µM, first compound 1 µM
[35] = second compound 10 µM, first compound 3.16 µM
[36] = second compound 10 µM, first compound 10 µM
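Note: spheroids exposed to agents for one week before reading.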
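Throughout, for viability, T/C: 100% = DMSO vehicle control viability.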

COc1cccc2c1C(=O)c1c(O)c3c(c(O)c1C2=O)CC(O)(C(=O)CO)CC3OC1CC(N)C(O)C(C)O1 (stereo unspecified) + CN(C)c1ccc(Nc2c3ccc(NC(=O)CCN4CCCC4)cc3nc3cc(NC(=O)CCN4CCCC4)ccc23)cc1
208 nM: IC50 (second compound 0.316 µM)
221 nM: IC50 (second compound 0.1 µM)
active: viability, T/C [6] 2.73% | viability, T/C [11] 2.6% | viability, T/C [12] 2.75% | viability, T/C [17] 1.27% | viability, T/C [18] 2.99% | viability, T/C [23] 0.97% | viability, T/C [24] 3% | viability, T/C [30] 1.89% | viability, T/C [35] 1.41% | viability, T/C [36] 1.9%
164 nM: IC50 (second compound 0.0316 µM)
176 nM: IC50 (second compound 3.16 µM)
422 nM: IC50 (second compound 10 µM)
inactive: viability, T/C [1] 85.5% | viability, T/C [2] 56.6% | viability, T/C [3] 31.2% | viability, T/C [4] 37.4% | viability, T/C [5] 3.76% | viability, T/C [7] 97.3% | viability, T/C [8] 68.8% | viability, T/C [9] 37.8% | viability, T/C [10] 29.9% | viability, T/C [13] 101% | viability, T/C [14] 67.6% | viability, T/C [15] 34.3% | viability, T/C [16] 33.3% | viability, T/C [19] 85.9% | viability, T/C [20] 67.9% | viability, T/C [21] 29.1% | viability, T/C [22] 30.7% | viability, T/C [25] 83% | viability, T/C [26] 58.2% | viability, T/C [27] 34.1% | viability, T/C [28] 36.5% | viability, T/C [29] 1.22% | viability, T/C [31] 61.9% | viability, T/C [32] 61.7% | viability, T/C [33] 52.9% | viability, T/C [34] 33.1%
186 nM: IC50 (second compound 1 µM)

C#Cc1c(F)ccc2cc(O)cc(-c3ncc4c(N5CC6CCC(C5)N6)nc(OCC56CCCN5CC(F)C6)nc4c3F)c12 (stereo unspecified) + CN(C)c1ccc(Nc2c3ccc(NC(=O)CCN4CCCC4)cc3nc3cc(NC(=O)CCN4CCCC4)ccc23)cc1
active: viability, T/C [35] 6.1% | viability, T/C [36] 1.84%
1770 nM: IC50 (second compound 0.0316 µM)
inactive: viability, T/C [1] 66.3% | viability, T/C [2] 62.5% | viability, T/C [3] 57.5% | viability, T/C [4] 48.1% | viability, T/C [5] 52.5% | viability, T/C [6] 41.7% | viability, T/C [7] 74.2% | viability, T/C [8] 52.2% | viability, T/C [9] 62% | viability, T/C [10] 60.8% | viability, T/C [11] 40.6% | viability, T/C [12] 33.5% | viability, T/C [13] 61.3% | viability, T/C [14] 57% | viability, T/C [15] 62.8% | viability, T/C [16] 52.5% | viability, T/C [17] 53.1% | viability, T/C [18] 32.6% | viability, T/C [19] 74.8% | viability, T/C [20] 56.4% | viability, T/C [21] 60.1% | viability, T/C [22] 50% | viability, T/C [23] 51.6% | viability, T/C [24] 34.2% | viability, T/C [25] 49.7% | viability, T/C [26] 63.3% | viability, T/C [27] 40.5% | viability, T/C [28] 35.8% | viability, T/C [29] 29% | viability, T/C [30] 16.8% | viability, T/C [31] 31.8% | viability, T/C [32] 23.6% | viability, T/C [33] 15.2% | viability, T/C [34] 10.6%
1400 nM: IC50 (second compound 1 µM)
3390 nM: IC50 (second compound 0.316 µM)
< 31.6 nM: IC50 (second compound 10 µM)
1850 nM: IC50 (second compound 0.1 µM)
159 nM: IC50 (second compound 3.16 µM)

COc1ncnc(C2CC2)c1-c1ncc2cnn(Cc3ccc(-c4nc(C(F)(F)F)cn4C(C)C)cc3)c2n1 + Cc1[nH]c2ccc(F)cc2c1-c1nc2c3cccnc3c3ncccc3c2[nH]1
inactive: viability, T/C [1] 94% | viability, T/C [2] 103% | viability, T/C [3] 107% | viability, T/C [4] 111% | viability, T/C [5] 100% | viability, T/C [6] 143% | viability, T/C [7] 101% | viability, T/C [8] 99.2% | viability, T/C [9] 105% | viability, T/C [10] 126% | viability, T/C [11] 104% | viability, T/C [12] 121% | viability, T/C [13] 109% | viability, T/C [14] 97.5% | viability, T/C [15] 125% | viability, T/C [16] 112% | viability, T/C [17] 116% | viability, T/C [18] 126% | viability, T/C [19] 97.8% | viability, T/C [20] 91.9% | viability, T/C [21] 102% | viability, T/C [22] 112% | viability, T/C [23] 133% | viability, T/C [24] 119% | viability, T/C [25] 87.7% | viability, T/C [26] 90.1% | viability, T/C [27] 98.1% | viability, T/C [28] 111% | viability, T/C [29] 125% | viability, T/C [30] 116% | viability, T/C [31] 81.8% | viability, T/C [32] 68.6% | viability, T/C [33] 101% | viability, T/C [34] 102% | viability, T/C [35] 109% | viability, T/C [36] 116%
> 10000 nM: IC50 (second compound 0.0316 µM) | IC50 (second compound 0.1 µM) | IC50 (second compound 0.316 µM) | IC50 (second compound 1 µM) | IC50 (second compound 3.16 µM) | IC50 (second compound 10 µM)
